pIC50: −log10 of the molar value.
What was measured:
[1] = biological target: T1, PI3Kδ (Homo sapiens, UniProt O00329); assay: ELISA assay for PI3Kδ: sandwich ELISA, phosphorylation of AKT (Thr308) in Raji cells; assay type: cell-based; details: cellular, pAKT (Thr308), Raji cells, anti-Human IgM stimulation; read-out: IC50 p110δ
T1 construct: endogenous in cells; host or cells: Raji (ATCC #CCL-86)
Method: Cellular PI3Kδ activity was determined by measuring the phosphorylation of AKT (Thr308) using a sandwich enzyme-linked immunosorbant assay (ELISA). Raji (Burkitt's Lymphoma) cells were obtained from ATCC (ATCC #CCL-86). Phosphate buffer saline (PBS) contained 2.7 M NaCl, 54 mM KCl, 86 mM […] (dibasic, anhydrous), and 28 mM […] (monobasic, anhydrous) at pH 7.2. Wash buffer contained PBS supplemented with 0.05% Tween-20. Blocking buffer contained wash buffer supplemented with 1% BSA. A 10× stimulation mixture contained 5 μg/mL anti-Human IgM antibody (Sigma #12386) diluted in serum-free RPMI medium (CellGro #CV-10-040-CV). Compounds for testing were dissolved and serially diluted in 100% DMSO (total of 10 concentrations), and then diluted in serum-free RPMI to 5×final assay concentration.
Raji cells were subcultured in RPMI medium supplemented with 10% fetal bovine serum, 100 IU/mL penicillin, 100 μg/mL streptomycin, and 1×MEM non-essential amino acids. Sandwich ELISA plates were prepared by coating 96-well assay plates (Pierce #15042) with 100 μL/well capture antibody (Cell Signaling Technology #7142 or 7144) diluted in PBS. Plates were incubated overnight at 4° C., then washed with wash buffer, after which 200 μL/well blocking buffer was added to the plates and incubated at room temperature for at least 2 hrs. Raji cells were resuspended in serum-free RPMI medium and seeded into V-bottom, 2-mL 96-well blocks (Corning #3961) at 10^6 cells/well, then incubated for 2 hrs in a 37° C., 5% CO2 incubator. Compound treatment was performed by adding the 5× compound mixture to the cells and incubating for 2 hrs at 37° C., 5% CO2, after which the 10× stimulation mixture was added to the plates and incubated for 30 min at 37° C., 5% CO2. Cells were pelleted by centrifuging plates at 1500 RPM for 5 min at room temperature. Media was carefully removed and cells were lysed by adding 100 μL/well cell lysis buffer (Cell Signaling Technology #9803) supplemented with protease and phosphatase inhibitors (Thermo Fisher #78443). Plates were incubated on ice for 30 min, then the lysates (80 μL for pAKT^T308, 10 μL for total AKT) were transferred to prepared assay plates and incubated at 4° C. overnight. After washing plates with wash buffer, 100 μL/well detection antibody (Cell Signaling Technology #7142 or 7144) diluted in blocking buffer was added to the plates and incubated for 1 hr at 37° C. Plates were washed and 100 μL/well of HRP-conjugated secondary antibody (Cell Signaling Technology #7142 or 7144) diluted in blocking buffer was added to plates and incubated for 1 hr at room temperature. Plates were washed with wash buffer and 100 μL/well of luminescent substrate was added to plates. After 1 min on a plate shaker at medium speed, luminescence was read on a Wallac Victor2 plate reader. IC50 values were determined by curve fitting using a Collaborative Drug Discovery database (www.collaborativedrug.com).

[2] = biological target: T2, PI3K delta (Homo sapiens, UniProt O00329); assay: Luciferase-based luminescence assay (KinaseGlo), PI3K delta enzymatic activity; assay type: biochemical; details: for pIC50: inhibition of enzymatic activity, KinaseGlo, 25 μM ATP, read-out: IC50 p110δ; for α/δ ratio: ratio of enzymatic IC50 against PI3Kα over IC50 against PI3Kδ; for β/δ ratio / γ/δ ratio: ratio of enzymatic IC50 values, Table 1
T2 construct: purchased Millipore, Billerica, MA, USA
Method: (§1) PI3K catalyzes the conversion of phosphatidylinositol-4,5-bisphosphate (PIP2) and ATP to phosphatidylinositol-3,4,5-trisphosphate (PIP3) and ADP. For all assays, the reaction buffer comprised 50 mM HEPES, pH 7.5, 3 mM MgCl2, 1 mM EGTA, 100 mM NaCl, 0.03% CHAPS and 2 mM DTT. Compounds for testing were dissolved and serially diluted in 100% DMSO (total of 10 concentrations), then diluted 1:25 in reaction buffer.
(§2) PI3K alpha and PI3K delta enzymatic activity was determined by measuring the amount of ATP consumed following the kinase reaction using a luciferase-based luminescence assay (KinaseGlo®, Promega Corp., Madison, WI, USA). PI3K enzyme solutions were prepared by diluting PI3K alpha (Invitrogen Corp., Carlsbad, CA, USA) or PI3K delta (Millipore, Billerica, MA, USA) in reaction buffer, to 4× the final assay concentration (final concentrations of enzymes were 1.65 nM and 6.86 nM for PI3K alpha and PI3K delta, respectively). A substrate solution was prepared by mixing PIP2 and ATP in reaction buffer at 2× the final assay concentration (final concentrations were 50 μM and 25 μM for PIP2 and ATP respectively). 2.5 μL each of the compound and kinase mixtures were added to individual wells of white low volume 384-well assay plates and mixed by shaking. The reactions were started by adding 5 μL of substrate mixture per well and shaking. The assay plates were covered and reactions were allowed to proceed for 1 hour (PI3K alpha) or 2 hours (PI3K delta), after which 10 μL of Kinase Glo® reagent was added. The plates were briefly centrifuged and incubated for 10 minutes, after which luminescence was measured using a FlexStation plate reader (Molecular Devices, Sunnyvale, CA, USA). IC50 values were determined by curve fitting using Graphpad Prism software (Graphpad Software, La Jolla, CA, USA).

[3] = biological target: T3, PI3K gamma (Homo sapiens, UniProt P48736); assay: Luciferase-based luminescence assay (ADP Glo), PI3K gamma enzymatic activity; assay type: biochemical; details: inhibition of enzymatic activity, 25 μM ATP, read-out: IC50 p110γ
T3 construct: purchased Invitrogen Corp., Carlsbad, CA, USA
Method: as §1
(§3) PI3K beta and gamma enzymatic activity was determined by measuring the amount of ADP produced following the kinase reaction using a luciferase-based luminescence assay (ADP Glo®, Promega Corp., Madison, WI, USA). PI3K enzyme solutions were prepared by diluting PI3K beta (Millipore, Billerica, MA, USA) or PI3K gamma (Invitrogen Corp., Carlsbad, CA, USA) in reaction buffer, to 4× the final assay concentration (final concentrations of enzymes were 4.8 nM and 7.6 nM for PI3K beta and PI3K gamma respectively). A substrate solution was prepared by mixing PIP2 and ATP in reaction buffer at 2× the final assay concentration (final concentrations were 50 μM and 25 μM for PIP2 and ATP respectively). 2.5 μL each of the compound and kinase mixtures were added to individual wells of white low volume 384-well assay plates and mixed by shaking. The reactions were started by adding 5 μL of substrate mixture per well and shaking. The assay plates were covered and reactions were allowed to proceed for 1 hour. Then, 5 μL of reaction mix was transferred to another white low volume 384-well plate, and 5 μL of ADP-Glo™ reagent was added. The plates were briefly centrifuged and incubated for 40 minutes, after which 10 μL of kinase detection buffer was added. The plates then were centrifuged briefly, shaken slowly and equilibrated at room temperature for 30 minutes, after which luminescence was measured using a FlexStation plate reader (Molecular Devices, Sunnyvale, CA, USA). IC50 values were determined by curve fitting using Graphpad Prism software (Graphpad Software, La Jolla, CA, USA).

[4] = biological target: T4, PI3K beta (Homo sapiens, UniProt P42338); assay: Luciferase-based luminescence assay (ADP Glo), PI3K beta enzymatic activity; assay type: biochemical; details: for pIC50: inhibition of enzymatic activity, ADP Glo, 25 μM ATP, read-out: IC50 p110β; for α/β ratio: ratio of enzymatic IC50 values, Table 1
T4 construct: purchased Millipore, Billerica, MA, USA
Method: as §1, §3

[5] = biological target: mTOR (Homo sapiens, UniProt P42345); assay: mTOR inhibition (Table 1); assay type: biochemical; details: Table 1, no method described
[6] = biological target: T5, PI3K alpha (Homo sapiens, UniProt P42336); assay: Luciferase-based luminescence assay (KinaseGlo), PI3K alpha enzymatic activity; assay type: biochemical; details: inhibition of enzymatic activity, 25 μM ATP, read-out: IC50 p110α
T5 construct: purchased Invitrogen Corp., Carlsbad, CA, USA
Method: as §1, §2

T4 sequence (P42338 whole entry, species assumed): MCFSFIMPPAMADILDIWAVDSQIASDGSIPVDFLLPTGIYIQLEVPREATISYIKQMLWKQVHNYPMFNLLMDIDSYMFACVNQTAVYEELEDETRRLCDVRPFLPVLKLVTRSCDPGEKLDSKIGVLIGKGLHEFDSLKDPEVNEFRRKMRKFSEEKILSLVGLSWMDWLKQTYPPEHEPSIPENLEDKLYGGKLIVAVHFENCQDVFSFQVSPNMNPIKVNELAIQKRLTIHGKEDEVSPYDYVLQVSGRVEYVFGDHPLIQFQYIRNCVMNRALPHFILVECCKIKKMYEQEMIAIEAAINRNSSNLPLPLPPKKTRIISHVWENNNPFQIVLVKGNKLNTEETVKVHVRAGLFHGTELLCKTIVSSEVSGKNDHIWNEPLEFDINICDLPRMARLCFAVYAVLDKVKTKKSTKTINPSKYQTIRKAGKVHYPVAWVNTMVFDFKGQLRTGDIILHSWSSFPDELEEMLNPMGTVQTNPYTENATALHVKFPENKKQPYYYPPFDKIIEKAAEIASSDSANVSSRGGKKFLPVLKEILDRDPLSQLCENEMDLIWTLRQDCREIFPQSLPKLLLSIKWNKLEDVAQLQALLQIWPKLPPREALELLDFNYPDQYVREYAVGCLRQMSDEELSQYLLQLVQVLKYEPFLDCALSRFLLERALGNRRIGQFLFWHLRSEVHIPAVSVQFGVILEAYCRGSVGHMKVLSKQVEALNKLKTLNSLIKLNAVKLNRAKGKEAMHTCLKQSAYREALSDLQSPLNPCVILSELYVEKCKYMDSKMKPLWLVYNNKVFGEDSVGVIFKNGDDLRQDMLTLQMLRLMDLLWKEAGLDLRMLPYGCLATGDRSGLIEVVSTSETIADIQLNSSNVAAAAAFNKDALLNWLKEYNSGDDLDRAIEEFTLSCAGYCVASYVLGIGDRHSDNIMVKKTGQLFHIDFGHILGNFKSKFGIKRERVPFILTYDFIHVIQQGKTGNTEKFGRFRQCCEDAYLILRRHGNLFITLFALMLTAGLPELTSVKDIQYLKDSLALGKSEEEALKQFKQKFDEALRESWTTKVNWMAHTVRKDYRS
T4 sequence (P27986 whole entry partner, species assumed): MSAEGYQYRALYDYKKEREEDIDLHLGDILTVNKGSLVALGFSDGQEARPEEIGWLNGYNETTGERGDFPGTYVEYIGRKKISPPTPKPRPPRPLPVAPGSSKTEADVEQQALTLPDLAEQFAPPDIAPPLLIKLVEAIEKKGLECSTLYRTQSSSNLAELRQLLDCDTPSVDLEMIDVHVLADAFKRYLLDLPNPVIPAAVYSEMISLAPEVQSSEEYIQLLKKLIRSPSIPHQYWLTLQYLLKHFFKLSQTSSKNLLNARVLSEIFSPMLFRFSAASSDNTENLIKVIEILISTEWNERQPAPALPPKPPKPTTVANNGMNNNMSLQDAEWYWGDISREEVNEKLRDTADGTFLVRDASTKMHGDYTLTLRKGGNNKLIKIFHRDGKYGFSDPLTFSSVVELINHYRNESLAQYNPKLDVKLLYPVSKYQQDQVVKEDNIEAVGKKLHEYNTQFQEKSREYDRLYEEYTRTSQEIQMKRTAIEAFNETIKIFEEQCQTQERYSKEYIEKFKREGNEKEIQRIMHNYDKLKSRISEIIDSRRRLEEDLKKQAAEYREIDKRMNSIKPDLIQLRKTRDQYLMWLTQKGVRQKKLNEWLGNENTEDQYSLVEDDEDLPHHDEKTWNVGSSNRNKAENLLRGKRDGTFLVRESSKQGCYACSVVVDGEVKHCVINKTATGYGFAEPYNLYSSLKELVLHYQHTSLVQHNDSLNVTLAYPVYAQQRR
T5 sequence (P42336 whole entry, species assumed): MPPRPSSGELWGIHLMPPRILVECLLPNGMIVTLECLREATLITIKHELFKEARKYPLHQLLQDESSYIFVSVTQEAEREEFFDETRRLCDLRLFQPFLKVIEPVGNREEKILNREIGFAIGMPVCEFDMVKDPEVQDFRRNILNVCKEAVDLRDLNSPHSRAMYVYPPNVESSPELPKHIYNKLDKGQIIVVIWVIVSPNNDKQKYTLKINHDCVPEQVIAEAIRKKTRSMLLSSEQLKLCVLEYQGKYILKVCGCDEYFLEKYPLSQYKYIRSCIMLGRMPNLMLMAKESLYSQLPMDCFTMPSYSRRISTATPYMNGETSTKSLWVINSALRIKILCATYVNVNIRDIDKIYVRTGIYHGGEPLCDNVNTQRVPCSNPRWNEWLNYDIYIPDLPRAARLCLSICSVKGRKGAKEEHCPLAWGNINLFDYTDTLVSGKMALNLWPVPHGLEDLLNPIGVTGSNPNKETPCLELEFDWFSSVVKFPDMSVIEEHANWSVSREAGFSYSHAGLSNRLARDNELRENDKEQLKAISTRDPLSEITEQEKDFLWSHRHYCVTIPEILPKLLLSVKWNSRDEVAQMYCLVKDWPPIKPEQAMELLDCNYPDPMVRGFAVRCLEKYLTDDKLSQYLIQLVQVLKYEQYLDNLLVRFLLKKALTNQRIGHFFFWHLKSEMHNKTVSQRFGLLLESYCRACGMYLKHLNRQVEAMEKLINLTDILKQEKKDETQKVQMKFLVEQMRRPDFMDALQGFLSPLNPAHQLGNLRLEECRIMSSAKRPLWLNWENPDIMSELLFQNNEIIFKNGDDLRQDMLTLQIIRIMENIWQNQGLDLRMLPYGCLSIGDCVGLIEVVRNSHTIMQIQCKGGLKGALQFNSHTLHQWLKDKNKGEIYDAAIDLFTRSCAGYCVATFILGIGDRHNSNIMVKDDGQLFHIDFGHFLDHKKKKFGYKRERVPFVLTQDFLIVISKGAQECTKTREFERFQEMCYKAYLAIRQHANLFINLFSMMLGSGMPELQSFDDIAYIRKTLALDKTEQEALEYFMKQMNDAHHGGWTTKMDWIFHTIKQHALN
T5 sequence (P27986 whole entry partner, species assumed): as the sequence (P27986 whole entry partner, species assumed) above
T3 sequence (P48736 whole entry, species assumed): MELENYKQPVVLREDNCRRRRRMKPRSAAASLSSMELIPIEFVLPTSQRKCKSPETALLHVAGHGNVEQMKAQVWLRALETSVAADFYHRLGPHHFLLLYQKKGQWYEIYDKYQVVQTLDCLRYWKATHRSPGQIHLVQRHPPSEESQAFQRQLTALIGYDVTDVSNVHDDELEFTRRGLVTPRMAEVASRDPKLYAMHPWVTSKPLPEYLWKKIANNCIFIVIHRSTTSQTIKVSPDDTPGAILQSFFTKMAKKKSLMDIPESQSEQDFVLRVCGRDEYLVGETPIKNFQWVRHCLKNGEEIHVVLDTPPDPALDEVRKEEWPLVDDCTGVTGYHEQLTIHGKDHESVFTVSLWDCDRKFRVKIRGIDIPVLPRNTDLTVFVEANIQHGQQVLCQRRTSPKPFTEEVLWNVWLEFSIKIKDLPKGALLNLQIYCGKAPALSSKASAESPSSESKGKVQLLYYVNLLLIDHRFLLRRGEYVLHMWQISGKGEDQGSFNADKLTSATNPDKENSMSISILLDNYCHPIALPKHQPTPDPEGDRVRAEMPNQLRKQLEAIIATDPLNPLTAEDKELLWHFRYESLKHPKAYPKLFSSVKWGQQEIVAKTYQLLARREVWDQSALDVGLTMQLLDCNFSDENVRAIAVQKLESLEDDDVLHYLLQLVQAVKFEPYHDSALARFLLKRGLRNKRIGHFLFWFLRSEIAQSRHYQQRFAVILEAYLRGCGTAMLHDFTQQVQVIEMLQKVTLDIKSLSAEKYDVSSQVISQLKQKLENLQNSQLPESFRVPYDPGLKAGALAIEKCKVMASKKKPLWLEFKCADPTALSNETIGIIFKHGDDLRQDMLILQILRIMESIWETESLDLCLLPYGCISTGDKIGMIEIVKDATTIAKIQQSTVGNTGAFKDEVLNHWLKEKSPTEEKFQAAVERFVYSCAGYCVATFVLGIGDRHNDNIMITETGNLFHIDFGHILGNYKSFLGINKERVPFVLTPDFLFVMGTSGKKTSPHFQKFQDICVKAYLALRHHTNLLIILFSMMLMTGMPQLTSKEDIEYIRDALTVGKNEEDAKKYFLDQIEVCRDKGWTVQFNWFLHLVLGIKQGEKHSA
T2 sequence (O00329 whole entry, species assumed): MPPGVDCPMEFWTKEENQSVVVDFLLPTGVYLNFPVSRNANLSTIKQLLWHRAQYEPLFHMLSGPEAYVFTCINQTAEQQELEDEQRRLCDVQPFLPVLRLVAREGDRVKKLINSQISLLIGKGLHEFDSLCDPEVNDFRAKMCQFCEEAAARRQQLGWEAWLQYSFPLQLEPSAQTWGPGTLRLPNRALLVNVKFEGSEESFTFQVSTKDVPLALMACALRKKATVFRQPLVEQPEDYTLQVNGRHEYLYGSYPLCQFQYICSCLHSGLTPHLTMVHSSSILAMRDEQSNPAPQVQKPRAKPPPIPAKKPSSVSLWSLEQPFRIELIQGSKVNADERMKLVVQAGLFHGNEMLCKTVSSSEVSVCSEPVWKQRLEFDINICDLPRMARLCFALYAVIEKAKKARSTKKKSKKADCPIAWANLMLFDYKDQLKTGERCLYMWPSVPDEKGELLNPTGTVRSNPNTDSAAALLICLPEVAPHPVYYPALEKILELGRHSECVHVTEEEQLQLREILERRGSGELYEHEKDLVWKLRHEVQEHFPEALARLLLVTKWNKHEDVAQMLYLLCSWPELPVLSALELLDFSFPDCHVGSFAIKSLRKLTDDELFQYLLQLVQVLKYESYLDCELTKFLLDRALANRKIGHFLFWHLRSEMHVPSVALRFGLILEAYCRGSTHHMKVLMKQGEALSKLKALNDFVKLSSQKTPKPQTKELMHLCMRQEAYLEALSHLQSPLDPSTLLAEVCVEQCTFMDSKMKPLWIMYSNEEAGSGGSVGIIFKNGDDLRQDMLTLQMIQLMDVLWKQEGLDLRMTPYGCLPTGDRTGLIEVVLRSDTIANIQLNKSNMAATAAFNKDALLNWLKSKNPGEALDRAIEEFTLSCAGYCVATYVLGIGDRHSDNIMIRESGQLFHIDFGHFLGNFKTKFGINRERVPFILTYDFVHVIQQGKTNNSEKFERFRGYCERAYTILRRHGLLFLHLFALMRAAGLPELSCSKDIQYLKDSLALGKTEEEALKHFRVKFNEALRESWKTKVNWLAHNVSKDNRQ
T2 sequence (P27986 whole entry partner, species assumed): as the sequence (P27986 whole entry partner, species assumed) above

| pIC50 [1] | pIC50 [2] | α/δ ratio [2] | β/δ ratio [2] | γ/δ ratio [2] | pIC50 [3] | pIC50 [4] | α/β ratio [4] | pIC50 [5] | pIC50 [6] | SMILES |
| --- | --- | --- | --- | --- | --- | --- | --- | --- | --- | --- |
| ≥ 7.00 | 6.30 to 6.70 | D’ | A’ | D’ | < 6.30 | < 6.30 | D’ | < 6.30 | < 6.30 | COc1ccc(CC(C)(C)Nc2nc(N3CCOCC3)nc(-n3c(C(F)F)nc4ccccc43)n2)cc1 [Compound A25, 4-(2-(difluoromethyl)-1H-benzo[d]imidazol-1-yl)-N-(1-(4-methoxyphenyl)-2-methylpropan-2-yl)-6-morpholino-1,3,5-triazin-2-amine] |
| ≥ 7.00 | ≥ 7.00 | B’ | D’ | C’ | 6.30 to 6.70 | 6.30 to 6.70 | D’ | < 6.30 | < 6.30 | CC(C)(Cc1ccc(Cl)cc1)Nc1nc(N2CCOCC2)nc(-n2c(C(F)F)nc3ccccc32)n1 [Compound A23, N-(1-(4-chlorophenyl)-2-methylpropan-2-yl)-4-(2-(difluoromethyl)-1H-benzo[d]imidazol-1-yl)-6-morpholino-1,3,5-triazin-2-amine] |
| ≥ 7.00 | 6.70 to 7.00 | D’ | C’ | D’ | 6.30 to 6.70 | < 6.30 | D’ | < 6.30 | < 6.30 | CC(C)(Cc1ccc(Br)cc1)Nc1nc(N2CCOCC2)nc(-n2c(C(F)F)nc3ccccc32)n1 [Compound A24, N-(1-(4-bromophenyl)-2-methylpropan-2-yl)-4-(2-(difluoromethyl)-1H-benzo[d]imidazol-1-yl)-6-morpholino-1,3,5-triazin-2-amine] |
|  | 6.30 to 6.70 | D’ | A’ | D’ | < 6.30 | < 6.30 | D’ | < 6.30 | < 6.30 | C[C@H](Nc1nc(N2CCOCC2)nc(-n2c(C(F)F)nc3ccccc32)n1)c1ccccc1 [Compound A2, (S)-4-(2-(difluoromethyl)-1H-benzo[d]imidazol-1-yl)-6-morpholino-N-(1-phenylethyl)-1,3,5-triazin-2-amine] |

Reference: US12059422B2 (MEI Pharma, Inc., priority 2011, dated 2024)
